Laboratory results as given in ChEMBL document CHEMBL4483862, “Open-source discovery of chemical leads for next-generation chemoprotective antimalarials” (2018).

Test system: Plasmodium berghei
Experiment: Luciferase/luciferin-expressing antifolate-resistant parasites were used to infect a culture of HepG2 cells that were pre-incubated with compounds. Infected hepatocytes emit light due to the luciferase reaction. Assay results are presented as the percent inhibition of light emission compared to control. […]
Assay type: functional
Details: sporozoite; for IC90: read-out: LUCIFERASE INFECTION ASSAY - IC90
[1] = read-out: LUCIFERASE INFECTION ASSAY - IC50

Compound | IC90 [µM] | IC50 [1] [µM] | further results
CC(=O)c1cccc(-c2cc3c(cn2)nc(NCc2ccccc2F)n3C)c1 | > 10 | – | IC50 (HEPG2TOX_HILL_SLOPE 11.4, HEPG2TOX_R_SQUARED 0.658, PBLUC_HILL_SLOPE 2.4, PBLUC_R_SQUARED 0.114, read-out: LUCIFERASE INFECTION ASSAY - IC50): 6.65 µM
CC(C)CCN1C(=O)N(C(C)C)C(=O)C12CCN(Cc1c[nH]c3ccccc13)CC2 | > 8.04 | – | IC50 (HEPG2TOX_HILL_SLOPE 1.06, HEPG2TOX_R_SQUARED 0.491, PBLUC_HILL_SLOPE 3.87, PBLUC_R_SQUARED 0.243, read-out: LUCIFERASE INFECTION ASSAY - IC50): > 8.04 µM
Cc1nc(COc2ccc(Cl)cc2)sc1C(=O)OC(C)C(=O)N1CCCC1 (stereo not drawn) | > 10 | – | IC50 (PBLUC_HILL_SLOPE 2.47, PBLUC_R_SQUARED 0.699, read-out: LUCIFERASE INFECTION ASSAY - IC50): 4.52 µM
CC(=O)Nc1cccc(-c2ccc3ncc(-c4cccs4)n3n2)c1 | > 10 | – | IC50 (HEPG2TOX_HILL_SLOPE 0.699, HEPG2TOX_R_SQUARED 0.927, PBLUC_HILL_SLOPE 0.967, PBLUC_R_SQUARED 0.554, read-out: LUCIFERASE INFECTION ASSAY - IC50): 2.81 µM
Cc1cccc(COc2cccc(C(=O)Nc3cccc(Cn4ccnc4)c3)c2)c1 | > 10 | – | IC50 (HEPG2TOX_HILL_SLOPE 5.55, HEPG2TOX_R_SQUARED 0.818, PBLUC_HILL_SLOPE 3.46, PBLUC_R_SQUARED 0.301, read-out: LUCIFERASE INFECTION ASSAY - IC50): 6.78 µM
CCCCNC(=O)C1(C)CCCCN1C(=O)c1ccc2c(c1)C(C)(C)CCC2(C)C (stereo not drawn) | > 8 | – | IC50 (PBLUC_HILL_SLOPE 3, PBLUC_R_SQUARED 0.424, read-out: LUCIFERASE INFECTION ASSAY - IC50): 7.41 µM
CCN(CC)c1ccc(NC(=O)c2cccc(N3C(=O)c4ccccc4C3=O)c2)cc1S(=O)(=O)Nc1ccccc1OC | > 10 | – | IC50 (FFLUC_HILL_SLOPE 15.4, FFLUC_R_SQUARED 0.773, PBLUC_HILL_SLOPE 13.2, PBLUC_R_SQUARED 0.21, read-out: LUCIFERASE INFECTION ASSAY - IC50): 9.38 µM
Cc1ccc(CSc2n[nH]c(=O)n2C2CC3C=CC2C3)cc1 (stereo not drawn) | > 10.5 | > 10.5 | –
Cc1cc(C)nc(-n2[nH]c(C)c(Cc3ccc(C(C)(C)C)cc3)c2=O)n1 | > 9.42 | – | IC50 (PBLUC_HILL_SLOPE 0.924, PBLUC_R_SQUARED 0.378, read-out: LUCIFERASE INFECTION ASSAY - IC50): 1.03 µM
Cc1ccc(C)c(S(=O)(=O)CCN2C(=O)C(=O)N(Cc3cccs3)C2=O)c1 | > 10 | > 10 | –
O=C(NNC(=S)NC(=O)c1cn(-c2ccccc2)nc1-c1ccc(Br)cc1)c1ccncc1 | 3.48 | – | IC50 (HEPG2TOX_HILL_SLOPE 6.43, HEPG2TOX_R_SQUARED 0.426, PBLUC_HILL_SLOPE 13.5, PBLUC_R_SQUARED 0.624, read-out: LUCIFERASE INFECTION ASSAY - IC50): 2.96 µM
O=C(Nc1ccc(SC(F)(F)F)cc1)Nc1ccc(-n2ccc(C(F)(F)F)n2)cc1 | 2.69 | – | IC50 (HEPG2TOX_HILL_SLOPE 17.7, HEPG2TOX_R_SQUARED 0.761, PBLUC_HILL_SLOPE 20.9, PBLUC_R_SQUARED 0.513, read-out: LUCIFERASE INFECTION ASSAY - IC50): 2.42 µM
O=C(Cn1c(CN2CCCCC2)nc2ccccc2c1=O)Nc1ccccc1Oc1ccccc1 | > 10 | > 10 | –
COc1ccc2cc(CN(C)C(C)C(=O)NCc3ccc(F)cc3)ccc2c1 (stereo not drawn) | > 10 | – | IC50 (HEPG2TOX_HILL_SLOPE 14.9, HEPG2TOX_R_SQUARED 0.671, read-out: LUCIFERASE INFECTION ASSAY - IC50): > 10 µM
CCCCNC(=O)c1c(NC(=O)C(CC)c2ccccc2)nc2ccc(C)cn12 (stereo not drawn) | > 8.41 | – | IC50 (FFLUC_HILL_SLOPE 12.5, FFLUC_R_SQUARED 0.645, PBLUC_HILL_SLOPE 0.242, PBLUC_R_SQUARED 0.0523, read-out: LUCIFERASE INFECTION ASSAY - IC50): > 8.41 µM
NC(Cc1ccccc1)c1csc(Nc2nncc3ccccc23)n1 (stereo not drawn) | 3.88 | – | IC50 (HEPG2TOX_HILL_SLOPE 16.4, HEPG2TOX_R_SQUARED 0.287, PBLUC_HILL_SLOPE 15.9, PBLUC_R_SQUARED 0.415, read-out: LUCIFERASE INFECTION ASSAY - IC50): 3.38 µM
Cc1cc(C)cc(NC(=O)C(NNC(=O)CC23CC4CC(CC(C4)C2)C3)c2ccccc2)c1 (stereo not drawn) | > 10 | > 10 | –

Compound | IC90 [µM] | IC50 [1] [µM] | further results
CC(C)c1ccc(C2C3CCc4ccccc4C3=NN2C)cc1 (stereo not drawn) | 0.553 | 0.0716 | –
CC(=O)c1cccc(-c2cnc3cnc(-c4ccc(CO)cc4)cn23)c1 | > 9.61 | – | IC50 (PBLUC_HILL_SLOPE 6.05, PBLUC_R_SQUARED 0.635, read-out: LUCIFERASE INFECTION ASSAY - IC50): 7.62 µM
O=C(CC12CC3CC(CC(C3)C1)C2)NN=CC1C(=O)N(Cc2ccccc2)C(=O)c2ccccc21 (stereo not drawn) | > 10 | > 10 | –
Cn1c(Oc2cccc3c2OC(C)(C)C3)c(C#N)c(=O)n(C)c1=O | 0.188 | – | IC50 (PBLUC_HILL_SLOPE 0.981, PBLUC_R_SQUARED 0.556, read-out: LUCIFERASE INFECTION ASSAY - IC50): 0.02 µM
CC(=O)c1c(C)[nH]c(C(=O)Nc2nc3ccccc3[nH]2)c1C | > 10 | – | IC50 (FFLUC_HILL_SLOPE 0.837, FFLUC_R_SQUARED 0.9, PBLUC_HILL_SLOPE 0.352, PBLUC_R_SQUARED 0.709, read-out: LUCIFERASE INFECTION ASSAY - IC50): 0.0695 µM
O=c1c2ccccc2nnn1CSc1nc2ccccc2c(=O)n1CCC1=CCCCC1 | 9.59 | – | IC50 (HEPG2TOX_HILL_SLOPE 2.76, HEPG2TOX_R_SQUARED 0.854, PBLUC_HILL_SLOPE 2.95, PBLUC_R_SQUARED 0.421, read-out: LUCIFERASE INFECTION ASSAY - IC50): 4.55 µM
NNc1nc(C(F)(F)F)nc2c1cnn2-c1ccccc1 | 5.03 | – | IC50 (PBLUC_HILL_SLOPE 6.68, PBLUC_R_SQUARED 0.4, read-out: LUCIFERASE INFECTION ASSAY - IC50): 3.62 µM
O=C(Nc1ccc(-c2nc(-c3ccc(O)c(O)c3)cs2)cc1)c1cccs1 | > 10 | > 10 | –
Cc1cc(C)n(-c2nc(C)c(Br)c(N(C)C)n2)n1 | > 10.6 | > 10.6 | –
COc1cc(-c2cnc3cnc(-c4ccc(N)nc4)cn23)ccc1O | 4.1 | – | IC50 (HEPG2TOX_HILL_SLOPE 2.67, HEPG2TOX_R_SQUARED 0.695, PBLUC_HILL_SLOPE 3.91, PBLUC_R_SQUARED 0.793, read-out: LUCIFERASE INFECTION ASSAY - IC50): 2.33 µM
O=c1c2ccc(Cl)cc2nc(-c2cccc(C(F)(F)F)c2)n1O | > 9.69 | > 9.69 | –
CC1(c2ccc(F)cc2)NC(=O)N(Cc2csc(-c3ccc(F)cc3)n2)C1=O (stereo not drawn) | > 10 | – | IC50 (PBLUC_HILL_SLOPE 12.9, PBLUC_R_SQUARED 0.121, read-out: LUCIFERASE INFECTION ASSAY - IC50): 9.44 µM
CCOc1ccc(-c2cc(-c3ccc(S(C)(=O)=O)cc3)nc3c2cnn3C(C)C)cc1 | > 10 | – | IC50 (HEPG2TOX_HILL_SLOPE 15.4, HEPG2TOX_R_SQUARED 0.615, PBLUC_HILL_SLOPE 23, PBLUC_R_SQUARED 0.199, read-out: LUCIFERASE INFECTION ASSAY - IC50): 9.21 µM
CC(C)(C)c1ccc(C(=O)Nc2ccc(C(F)(F)F)cc2)s1 | 4.36 | 0.561 | –
CCCNC(=O)C1CN(C(=O)c2oc3ccccc3c2COc2ccccc2)c2ccccc2O1 (stereo not drawn) | > 10 | – | IC50 (PBLUC_HILL_SLOPE 3.71, PBLUC_R_SQUARED 0.44, read-out: LUCIFERASE INFECTION ASSAY - IC50): 6.61 µM
CC(C)C(=O)NCc1coc(-c2cccs2)n1 | > 10 | > 10 | –
COc1ccc(-c2cnc3cnc(-c4ccccc4C)cn23)cn1 | 4.17 | 2.21 | –
